Experimental data: PubChem BioAssay AID179 (DTP/NCI, 2004)
“And” between values parts separate entries of the source, which are not always exact repeats. Equal entries are not always repeated. The source made the active and inactive calls.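 Rule for the calls: active = compounds giving half or more protection of infected cells from virus-caused growth loss, again on retest; inactive = the rest.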 Where a SMILES comes first, the peptide text is derived from it.

Tested on: CEM cells HIV-1 protection, formazan growth assay
Test: NCI AIDS Antiviral Assay
Details: for IC50: measured here: growth of uninfected CEM cells
Procedure, shortened: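 Five concentrations of each compound were applied to infected and uninfected human CEM cells. Protection from HIV-1 was judged from growth measured with a soluble formazan assay.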

Compound | EC50 | IC50 | outcome
COP(=O)(Cc1ccc(/C=C/C#N)o1)OC | > 200 µM | > 200 µM | –
CCC(C)C(C1=C(O)c2ccccc2C(=O)C1=O)C1=C(O)c2ccccc2C(=O)C1=O (stereo not given) | > 200 µM | 87.1 µM | –
CCCCCCCCCCCCCCCCOCC(COC1OC(CS(=O)(=O)O)C(O)C(O)C1O)OCCCCCCCCCCCCCCCC (stereo not given) | 100 µM | 123 µM | –
Cc1cc(Cl)ccc1NC(=O)CCCC(=O)C1CCCC1=O (stereo not given) | – | – | inactive
COC(=O)N1[C@@H]2C=CC=CC=C2[C@@H](OC)N1C(=O)OC | > 158 µM | 89.1 µM | –
COC1N(C2CC(F)C(CO)O2)C(=O)NC(=O)C1(C)Cl (stereo not given) | 14.5 µM and 25.1 µM | 794 µM | –
CC(O)CN1c2ccccc2Sc2ccccc21 (stereo not given) | > 200 µM | > 200 µM | –
COc1cc(N=CNc2cc(OC)n[n+]([O-])c2)c[n+]([O-])n1 | > 224 µM | > 224 µM | –
Cc1cc(Cl)cc2c1NC(=O)C2(O)CC(=O)c1ccc(F)cc1 (stereo not given) | > 15.5 µM | > 15.5 µM | –
OC[C@@H]1C(O)[C@H](O)[C@H]2C(O)CCN12 (stereo not given in full) | > 1320 µM | > 1320 µM | –
Cc1csc2[nH]c3ccccc3[n+]12 | – | – | inactive
COc1ccc(C(=O)C(C(=O)C(=O)Nc2nccs2)c2ccc(OC)cc2)cc1 (stereo not given) | > 63.1 µM | > 63.1 µM | –
COC(=O)[C@@H](NC1(c2ccccc2)c2ccccc2-c2ccccc21)[C@H](OC(=O)[C@H]1CCCN1S(=O)(=O)c1ccccc1)C(=O)OC | > 200 µM | 9.33 µM | –
Cc1cc(NS(=O)(=O)c2ccc(NC(=O)c3cccc4c(Nc5ccc(S(=O)(=O)N=C(N)N)cc5)c5ccccc5nc34)cc2)no1 | 52.5 µM | 53.7 µM | –
COC12CC(=O)C(C(C)=O)=C(O)C1(C)c1c(OC(C)=O)c(C)c(O)c(C(C)=O)c1O2 (stereo not given) | > 603 µM | 10.7 µM | –
c1ccc2nc3c(nc2c1)[nH]c1ccccc13 | > 12.3 µM | > 12.3 µM | –
CCc1c(CNC2=NCCN2)c(CC)c(CNC2=NCCN2)c(CC)c1CNC1=NCCN1 | > 200 µM | > 200 µM | –
CC(C)c1ccc(S(=O)(=O)c2ccc([N+](=O)[O-])cc2[N+](=O)[O-])cc1 | > 200 µM | 0.851 µM | –
O=c1ccc2ccccc2o1 | > 1700 µM | 1410 µM | –
COc1ccc(N2C(Cl)C(=O)C2c2c[nH]c3ccccc23)cc1 (stereo not given) | > 151 µM | 132 µM | –
CN(C)C(=S)N/N=C(\C(=N/NC(=S)N(C)C)c1ccccn1)c1ccccn1 | > 20 µM | 1.1 µM | –

Compound | EC50 | IC50 | outcome
NC(CSS(=O)(=O)O)=NCCSS(=O)(=O)O | > 200 µM | 110 µM | –
O=C(Nc1ccc(/C=C/c2ccc(NC(=O)c3cc(S(=O)(=O)O)c4cccnc4c3O)cc2S(=O)(=O)O)c(S(=O)(=O)O)c1)c1cc(S(=O)(=O)O)c2cccnc2c1O | 4.47 µM | 148 µM | –
Brc1cc(C2OCCCO2)ccc1OCc1ccccc1 | > 53.7 µM | > 53.7 µM | –
COC1/C=C/OC2(C)Oc3c(C)c(O)c4c(O)c(c(/C=N/N(C)C(C)C(O)c5ccccc5)c(O)c4c3C2=O)NC(=O)C(C)=C/C=C/C(C)C(O)C(C)C(O)C(C)C(OC(C)=O)C1C (stereo not given) | > 200 µM | 9.55 µM | –
COC(=O)C1=CC2OC1(C)C1(CC1)C2=O (stereo not given) | – | – | inactive
COC(=O)CC1(CNC(=O)OCc2ccccc2)OCCO1 | > 200 µM | > 200 µM | –
S=c1nc[nH]c2nc[nH]c12 | > 234 µM | 1.51 µM | –
O=C1CSC2=NC3=C(COC/C3=C\c3ccc(F)cc3)C(c3ccc(F)cc3)N12 (stereo not given) | – | – | inactive
CC1=NN(c2ccccc2)C(=O)C1N=Nc1ccc(S(N)(=O)=O)cc1 (stereo not given) | – | – | inactive
O=C1NC2=NN=C(c3ccc(Br)cc3)CN2NC12c1ccccc1-c1ccccc12 | > 100 µM | > 100 µM | –
CCOC(=O)C1=C(C)N2CCOC2(C)C(C(=O)OC)C1c1cccc(Cl)c1 (stereo not given) | > 66.1 µM | > 66.1 µM | –
O=C1c2ccccc2CC12Cc1ccc3c(c1C2)CCC3 (stereo not given) | > 200 µM | 89.1 µM | –
NCCCCC(NC(=O)C(CO)NC(=O)C(CO)NC(=O)CN)C(=O)NC(CO)C(=O)NC(CCCCN)C(=O)N1CCCC1C(=O)NC(CCCCN)C(=O)NC(CC(=O)O)C(N)=O (stereo not given) (H-GSSKSKPKD-NH2; configuration not given here) | > 269 µM | > 269 µM | –
CCCCOc1cc(C[S+]2CCCC2)c(OC)cc1C[S+]1CCCC1 | > 145 µM | 14.8 µM | –
O=S(c1ccc(Cl)cc1)S(=O)c1ccc(Cl)cc1 (stereo not given) | > 22.4 µM | 18.2 µM | –
O=C1OC(CC(=O)c2ccccc2Cl)C(Cl)=C1Cl (stereo not given) | > 117 µM | 69.2 µM | –
O=C(/C=C/c1ccc(O)cc1)CC(=O)/C=C/c1ccc(O)cc1 | > 200 µM | 9.55 µM | –
CCC(CS(=O)(=O)O)[N+](=O)[O-] (stereo not given) | > 200 µM | > 200 µM | –
CC(C)N=c1cc2n(-c3ccc(Cl)cc3)c3ccccc3nc-2cc1Nc1ccc(Cl)cc1 | > 100 µM | 9.12 µM | –
Cc1ccc(C2=C(c3ccccc3)C(O)(c3ccccc3)C(c3ccccc3)=C2c2ccc(C)cc2)cc1 | > 7.76 µM | > 7.76 µM | –
CC1CC(c2cccc3c2OCO3)=Nc2ccccc2S1 (stereo not given) | > 17.4 µM | > 17.4 µM | –

Compound | EC50 | IC50 | outcome
CCOC(=O)C(C)(C)Oc1ccc2c(-c3ccccc3)cc(=O)oc2c1 | > 20.4 µM | > 20.4 µM | –
CC1C2=CC=C(O2)C(C)(C)C2=CC=C(O2)C(C)(C)C2=CC=C(O2)C(C)(C)C2=CC=C1O2 | – | – | inactive
O=C1c2ccccc2-c2nc(-c3ccccc3)cc3c2c1nc1ccccc13 | > 200 µM | 30.2 µM | –
CN1C(=O)[C@H](c2c[nH]c3ccccc23)[C@H](c2c[nH]c3ccccc23)C1=O | > 129 µM | 38 µM | –
NC(=S)NNC(=O)/C(=C/c1ccc(/C=C(\NC(=O)c2ccccc2)C(=O)NNC(N)=S)cc1)NC(=O)c1ccccc1 | > 8.71 µM | > 8.71 µM | –
NC(=O)n1cnc(N)n1 | > 200 µM | > 200 µM | –
COc1cc(OC)c(C2=NOC(n3c4ccccc4c4ccccc43)C2)c(OC)c1 (stereo not given) | – | – | inactive
CC(=O)C1=C(C)N2C(=NC3=C(CCc4ccccc43)C2c2ccc(F)cc2)S1 (stereo not given) | > 200 µM | 178 µM | –
CCOCCOCCOCc1nc(C#N)c(N)o1 | > 200 µM | > 200 µM | –
O=C1CN(S(=O)(=O)c2ccc([N+](=O)[O-])cc2)CC(=O)CN(S(=O)(=O)c2ccc([N+](=O)[O-])cc2)C1 | > 200 µM | > 200 µM | –
Cc1cc(N(CCC#N)CCC#N)ccc1/C=C/C(=O)Nc1cccc(Cl)c1 | > 66.1 µM | > 66.1 µM | –
O=C(O)c1ccc2c(c1)S(=O)(=O)c1ccccc1C2=O | > 200 µM | > 200 µM | –
O=C(NCCN1CCCC1)c1cn2c(ccc3sc4ccccc4c(=O)c32)n1 | > 200 µM | 1.26 µM | –
O=C(O)C(CS(=O)(=O)O)S(=O)(=O)O (stereo not given) | – | – | inactive
C=C(C)[C@@H]1CC[C@]2(CNC(=O)CC3(CC(=O)O)CCCC3)CC[C@]3(C)[C@H](CC[C@@H]4[C@@]5(C)CC[C@H](NC(=O)CC6(CC(=O)O)CCCC6)C(C)(C)[C@@H]5CC[C@]43C)[C@@H]12 | > 200 µM | 13.5 µM | –
CC1(C)CC2C(C1=O)C1(C)CCCC2(C)C1=O (stereo not given) | > 200 µM | > 200 µM | –
Cc1cc2c(=O)c(C)n[nH]c2c(C#N)c1C | > 1170 µM | 178 µM | –
COC(=O)/N=[N+](\[O-])C(c1ccccc1)c1ccccc1 | > 200 µM | 191 µM | –
CN(C)CC/C(=N\Nc1c(Cl)cccc1Cl)c1ccccc1 | – | – | inactive
CCOC(=O)c1c(-c2ccc(OC)cc2)c(C#N)c(=S)n(C2OC(COC(C)=O)C(OC(C)=O)C(OC(C)=O)C2OC(C)=O)c1C (stereo not given) | > 200 µM | 42.7 µM and 33.9 µM | –
OC1(O)/C=C\CCCCC/C=C\1 | > 200 µM | 129 µM | –

Compound | EC50 | IC50 | outcome
Fc1c(F)c(-c2c(F)c(F)c(S)c(F)c2F)c(F)c(F)c1S | – | – | inactive
CN1CCN(C(=S)N(C(=O)c2ccco2)C2CCCCC2)CC1 | > 741 µM | 631 µM | –
NC(Cc1ccccc1)c1nccs1 (stereo not given) | > 200 µM | > 200 µM | –
O=C1C(Cl)=C(c2ccc([N+](=O)[O-])cc2)C(=O)c2c(O)cccc21 | > 79.4 µM | 1.12 µM | –
COC(=O)c1cc(C(=CCCCCCBr)c2cc(Cl)c(OC)c(C(=O)OC)c2)cc(Cl)c1OC | > 4.79 µM | > 4.79 µM | –
C[N+]12CCC34c5ccccc5NC3C3C(CC(=O)[O-])OCC=C(C1)C3CC42 (stereo not given) | – | – | inactive
CCc1n[nH]c(=O)n1-n1c(C)ccc1C | > 200 µM | > 200 µM | –
CC(=O)CC1CCC(=O)CCC(=O)OC(CC(C)=O)CCC(=O)CCC(=O)O1 (stereo not given) | 170 µM | > 200 µM | –
N#C[C@H](c1ccccn1)c1nc2ccccc2nc1Cl | > 200 µM | 115 µM | –
COC(=O)CC1(C(=O)OC)Nc2cc(Cl)c(Cl)cc2S(=O)(=O)N1O (stereo not given) | 69.2 µM | 91.2 µM | –
CCN1C[C@]2(C)CC[C@H](OCc3ccccc3)C34C5C[C@@H]6CC[C@](O)(C(C[C@@H]32)C14)C5[C@H]6OCc1ccccc1 (stereo not given in full) | > 200 µM | > 100 µM | –
CC1NC(=O)COC1c1ccccc1 (stereo not given) | > 200 µM | > 200 µM | –
O=C(O)CC(=O)Nc1ccccc1S | > 200 µM | > 200 µM | –
CSc1c(C#N)c(N)n(-c2ccc(Cl)cc2)c(=O)c1C#N | 67.6 µM | 72.4 µM | –
Cn1c(=O)c2[nH]c(N=Nc3c(N)n[nH]c3N)nc2n(C)c1=O | > 200 µM | > 200 µM | –
COC(=O)c1ccccc1C1CN=NC12Cc1ccc3c(c1C2=O)CCC3 (stereo not given) | > 200 µM | – | –
CCOC(=O)C(=CNc1ccc(NC2=NCC(C)S2)cc1)C(=O)OCC (stereo not given) | > 200 µM | 3.24 µM | –
CC(C)CCC[C@@H](C)[C@H]1CC[C@H]2[C@@H]3CCC4C[C@@H](OP(=O)(O)OCCC=C(c5cc(Cl)c(O)c(C(=O)O)c5)c5cc(Cl)c(O)c(C(=O)O)c5)CC[C@]4(C)[C@H]3CC[C@]12C (stereo not given in full) | > 200 µM | 33.9 µM | –
CCCCCCCCCCCC1CN=C(CCCCC2=NCC(CCCCCCCCCCC)N2)N1 (stereo not given) | > 7.08 µM | > 7.08 µM | –
CSc1nc(-c2ccccc2)c(C#N)c(=O)[nH]1 | – | – | inactive
Cc1ccc(N=Nc2cc(=O)[nH]c(=O)[nH]2)cc1C | > 200 µM | 3.98 µM | –
